Tests used:
[1] = target: B-Raf kinase (SEQ. ID NO: 2) (Homo sapiens (Human), UniProt P15056); experiment: Biochemical Assay for B-Raf (2); settings: Table J, biochemical assay (2); read-out: BRAF (2)
Experimental: Biochemical Assay for B-Raf (2)
(§1) Activity of B-Raf kinase (SEQ. ID NO: 2) was determined spectroscopically using a coupled pyruvate kinase/lactate dehydrogenase assay that continuously monitors the ATP hydrolysis-dependent oxidation of NADH (e.g., Schindler et al., Science, 2000, 289, 1938-1942). Assays were conducted in 384-well plates (25 μL final volume) using 2 nM B-Raf (Sigma), 1.5 units pyruvate kinase, 2.1 units lactate dehydrogenase, 1 mM phosphoenol pyruvate, 0.7 mM NADH, 50 nM MEK (SignalChem), and 1 mM ATP in assay buffer (100 mM Tris, pH 7.5, 15 mM MgCl2, 0.5 mM DTT, 0.1% octyl-glucoside, 0.002% (w/v) BSA, and 0.002% Triton X-100). Inhibition of B-Raf was measured by adding serial diluted test compound (final assay concentration of 1% DMSO). A decrease in absorption at 340 nm was monitored hourly for 4 h at 30° C. on a multi-mode microplate reader (BioTek). The reaction rate was calculated using the 2 to 3 h time frame. The reaction rate at each concentration of compound was converted to percent inhibition using controls (i.e., reaction with no test compound and reaction with a known inhibitor) and IC50 values were calculated by fitting a four-parameter sigmoidal curve to the data using Prism (GraphPad software).

WM3928 cells = experiment: WM3928 Cell Proliferation Assay (2); assay type: cell-based
Experimental: WM3928 Cell Proliferation Assay (2)
WM3928 cells (#WM3928-01-0001) are obtained from Rockland Immunochemicals Inc (Gilbertsville, PA). Briefly, cells were grown in MCDB 153 medium (Sigma, #M7403, St. Louis, MO) supplemented with 20% Leibovitz's L-15 (ThermoFisher #11415-064, Waltham, MA), 2% heat inactivated fetal bovine serum (ThermoFisher, #A3840001, Waltham, MA), 5 μg/mL Insulin (Bovine Pancreas) (Sigma, #10516, St. Louis, MO), 1.68 mM Calcium Chloride (Sigma, #C-34006, St. Louis, MO) and 1% Penicillin/Streptomycin/L-Glutamine (ThermoFisher #10378016, Waltham, MA) at 37° C., 5% CO2, and 95% humidity. Cells are expanded until reaching 70-95% confluency at which point they are sub-cultured or harvested for assay use. Using the Beckman Coulter Echo 650, a serial dilution of test compound is dispensed into a 384-well black clear bottom plate in triplicate. Seven hundred fifty cells are added per well in 50 μL complete growth medium in the 384-well plate. Plates are incubated for 67-72 hours at 37° C., 5% CO2, and 95% humidity. At the end of the incubation, 10 μL of a 440 μM solution of resazurin (Sigma, #199303, St. Louis, MO) in PBS is added to each well of the plate and plates are incubated for an additional 3-6 hours at 37° C., 5% CO2, and 95% humidity. Plates are read on a Synergy2 or equivalent reader (Biotek, Winooski VT) using an excitation of 540 nm and an emission of 600 nm. Data is analyzed using Prism software (GraphPad, San Diego, CA) to calculate IC50 values.

[2] = target: C-Raf kinase (SEQ. ID NO: 3) (Homo sapiens (Human), UniProt P04049, Y340D/Y341D); experiment: Biochemical Assay for C-Raf (2); settings: Table J, biochemical assay (2); read-out: CRAF (2)
Chain of C-Raf kinase (SEQ. ID NO: 3) (P04049 307-648 Y340D/Y341D): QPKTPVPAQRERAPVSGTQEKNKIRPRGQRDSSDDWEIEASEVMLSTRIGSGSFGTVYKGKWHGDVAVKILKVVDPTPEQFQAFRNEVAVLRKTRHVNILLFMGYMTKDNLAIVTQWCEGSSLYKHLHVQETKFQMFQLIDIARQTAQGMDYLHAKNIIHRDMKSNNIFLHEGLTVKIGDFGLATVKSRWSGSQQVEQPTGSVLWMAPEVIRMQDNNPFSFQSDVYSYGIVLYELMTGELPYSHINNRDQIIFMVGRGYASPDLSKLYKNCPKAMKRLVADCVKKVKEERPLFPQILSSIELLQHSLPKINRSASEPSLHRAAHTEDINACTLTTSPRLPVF
Experimental: Biochemical Assay for C-Raf (2)
as §1, with “of C-Raf” for “of B-Raf”, “NO: 3)” for “NO: 2)”, “using 3.84” for “using 2”, “nM C-Raf (Eurofins),” for “nM B-Raf (Sigma),”

[3] = target: B-Raf (V600E) (SEQ. ID NO: 4) kinase (Homo sapiens (Human), UniProt P15056, V600E); experiment: Biochemical Assay for B-Raf (V600E) (2); settings: Table J, BRAF V600E, biochemical assay (2); read-out: BRAF VE (2)
Chain of B-Raf (V600E) (SEQ. ID NO: 4) kinase (P15056 416-766 V600E): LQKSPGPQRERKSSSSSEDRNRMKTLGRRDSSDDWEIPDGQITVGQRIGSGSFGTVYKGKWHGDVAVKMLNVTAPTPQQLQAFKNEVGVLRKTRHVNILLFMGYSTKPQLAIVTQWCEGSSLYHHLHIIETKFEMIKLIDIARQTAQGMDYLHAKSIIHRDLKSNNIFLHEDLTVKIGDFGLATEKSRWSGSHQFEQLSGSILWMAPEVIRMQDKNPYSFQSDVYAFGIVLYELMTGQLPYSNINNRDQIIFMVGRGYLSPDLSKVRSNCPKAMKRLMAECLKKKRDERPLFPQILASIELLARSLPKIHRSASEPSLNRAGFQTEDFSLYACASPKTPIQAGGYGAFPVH
Experimental: Biochemical Assay for B-Raf (V600E) (2)
Activity of B-Raf (V600E) (SEQ. ID NO: 4) kinase was determined spectroscopically using a coupled pyruvate kinase/lactate dehydrogenase assay that continuously monitors the ATP hydrolysis-dependent oxidation of NADH (e.g., Schindler et al., Science, 2000, 289, 1938-1942). Assays were conducted in 384-well plates (25 μL final volume) using 0.5 nM B-Raf (deCode), 1.5 units pyruvate kinase, 2.1 units lactate dehydrogenase, 1 mM phosphoenol pyruvate, 0.7 mM NADH, 100 nM MEK (SignalChem), and 1 mM ATP in assay buffer (100 mM Tris, pH 7.5, 15 mM MgCl2, 0.5 mM DTT, 0.1% octyl-glucoside, 0.002% (w/v) BSA, and 0.002% Triton X-100). Inhibition of B-Raf (V600E) was measured by adding serial diluted test compound (final assay concentration of 1% DMSO). A decrease in absorption at 340 nm was monitored hourly for 4 h at 30° C. on a multi-mode microplate reader (BioTek). The reaction rate was calculated using the 3 to 4 h time frame. The reaction rate at each concentration of compound was converted to percent inhibition using controls (i.e., reaction with no test compound and reaction with a known inhibitor) and IC50 values were calculated by fitting a four-parameter sigmoidal curve to the data using Prism (GraphPad software).

Chain of B-Raf kinase (SEQ. ID NO: 2) (P15056 416-766): as the sequence (P15056 416-766 V600E) above, with E185V counted along it

SMILES	IC50 [1] [nM]	IC50 (WM3928 cells) [nM]	IC50 [2] [nM]	IC50 [3] [nM]
Cc1cc(-c2cc(NC(=O)c3ccnc(C(C)(C)F)c3)ccc2C)cc(-c2ccnc(C#N)c2)n1 [Example 483]	100 to 500	500 to 1000	≤ 100	100 to 500
Cc1cc(-c2cc(NC(=O)c3ccnc(C(C)(C)F)c3)ccc2C)cc(-c2ccnc(C(N)=O)c2)n1 [Example 484]	≤ 100	≤ 100	≤ 100	≤ 100

From patent US12319655B2, “RAF kinase inhibitors and methods of use thereof” (Deciphera Pharmaceuticals, LLC, priority 2021, dated 2025)
